Measurements taken from paper PMC6214026, “PSMA-Oriented Target Delivery of Novel Anticancer Prodrugs: Design, Synthesis, and Biological Evaluations of Oligopeptide-Camptothecin Conjugates” (International Journal of Molecular Sciences, 2018).
Where two headings read alike, the source gives them in different places.

Key:
[1] = tested on: LNCaP-FGC cells (PSMA-expressing); test: MTT cytotoxicity assay, LNCaP-FGC; format: cell-based, human; conditions: 72 h, read-out: IC50 LNCaP-FGC
Description: (§1) The cytotoxicities of PSMA-activated prodrug CPT-HT-J-ZLn and PSMA hydrolysate CPT-D-GLn were evaluated by MTT assays on PSMA-expressing (PSMA^+) cancer cell LNCaP-FGC, non-PSMA-expressing (PSMA^−) cancer cells HepG2, MCF-7, Hela, DU145, and PC-3, and normal cells MDCK, LO2, respectively, using CPT as a positive control.
(§2) The human prostate cancer cell line (LNCaP-FGC), human prostate cancer cell line (PC-3), human prostate cancer cell line (DU-145), human breast cancer cell line (MCF-7), human hepatocellular carcinoma cell line (HepG2), human cervical cancer cell line (Hela), were obtained from the Chinese Academy of Medical Sciences and Peking Union Medical College. The cultures of the cells were maintained as a monolayer in RPMI 1640 or DMEM supplemented with 10% (v/v) heat inactivated fetal bovine serum and 1% (v/v) enicillin/streptomycin (Corning, New York, NY, USA) and incubated at 37 °C in a humidified atmosphere with 5% CO2. The tested compounds were dissolved in DMSO (Sigma, St. Louis, MO, USA) and added at required concentrations to the cell culture.
(§3) The cytotoxicity of all the tested compounds was evaluated in vitro via the MTT method against PSMA-expressing LNCaP-FGC cells and non-PSMA-expressing cells HepG2, Hela, MCF-7, DU145, PC-3 cells using CPT as the positive control. Tumor cells growing in the logarithmic phase were seeded in 96-well plates at a density 3 × 10^3 cells/well and incubated overnight. The following day, cells were then treated with serial dilutions of the tested compounds for 72 h. At the end of this incubation, 20 µL of 5 mg/mL methylthiazol tetrazolium (MTT) was added to each well and incubation proceeded at 37 °C for another 4 h. After the supernatant medium was thrown away, 150 µL dimethylsulphoxide (DMSO) were added to each well and absorbance was measured at 490 nm using a plate reader (BIORAD 550 spectrophotometer, Bio-rad Life Science Development Ltd., Berkeley, CA, USA). Experiments were performed in triplicate and the values were the average of three (n = 3) independent experiments. The concentration of the compound that results in 50% growth inhibition corresponds to the IC50. Tumor cell growth inhibitory rate was calculated using Equation (1): % inhibition = (1 − Sample group OD/Control group OD) × 100%(1)

[2] = tested on: HeLa cells (non-PSMA-expressing); test: MTT cytotoxicity assay, HeLa; format: cell-based, human; conditions: 72 h, mean ± SD, n = 3
Description: as §1
The tested compounds were dissolved in DMSO (Sigma, St. Louis, MO, USA) and added at required concentrations to the cell culture.
as §3, with “experiments.” for “experiments. The concentration of the compound that results in 50% growth inhibition corresponds to the IC50. Tumor cell growth inhibitory rate was calculated using Equation (1): % inhibition = (1 − Sample group OD/Control group OD) × 100%(1)”

[3] = tested on: LO2 cells; test: cells; format: cell-based; conditions: read-out: IC50 LO2
Description: as §1, §3

[4] = tested on: MDCK cells; test: cells; format: cell-based; conditions: 72 h, read-out: IC50 MDCK
Description: as §1, §3

[5] = tested on: MCF-7 cells (non-PSMA-expressing); test: cells; format: cell-based, human; conditions: read-out: IC50 MCF-7
Description: as §1, §2, §3

[6] = tested on: PC-3 cells (non-PSMA-expressing); test: cells; format: cell-based, human; conditions: read-out: IC50 PC-3
Description: as §1, §2, §3

[7] = tested on: HepG2 cells (non-PSMA-expressing); test: cells; format: cell-based, human; conditions: read-out: IC50 HepG2
Description: as §1, §2, §3

[8] = tested on: DU145 cells (non-PSMA-expressing); test: cells; format: cell-based, human; conditions: read-out: IC50 DU145
Description: as §1, §2, §3

| SMILES | IC50 ([1]; Homo sapiens) | IC50 ([2]; Homo sapiens, HeLa) | IC50 ([3]; Homo sapiens, L02, 72 h) | IC50 ([4]; Canis lupus familiaris, MDCK) | IC50 ([5]; Homo sapiens, MCF7, 72 h) | IC50 ([6]; Homo sapiens, PC-3, 72 h) | IC50 ([7]; Homo sapiens, HepG2, 72 h) | IC50 ([8]; Homo sapiens, DU-145, 72 h) | IC50 ([1]; MTT, mean ± SD, n = 3, PSMA+) | IC50 [2] | IC50 ([3]; MTT, 72 h, normal cells) | IC50 ([4]; MTT, normal cells) | IC50 ([5]; MTT, 72 h, mean ± SD, n = 3) | IC50 ([6]; MTT, 72 h, mean ± SD, n = 3) | IC50 ([7]; MTT, 72 h, mean ± SD, n = 3) | IC50 ([8]; MTT, 72 h, mean ± SD, n = 3) |
| --- | --- | --- | --- | --- | --- | --- | --- | --- | --- | --- | --- | --- | --- | --- | --- | --- |
| CC[C@@]1(OC(=O)CN)C(=O)OCc2c1cc1n(c2=O)Cc2cc3ccccc3nc2-1 [CPT-B-L2, (S)-4-ethyl-3,14-dioxo-3,4,12,14-tetrahydro-1H-pyrano[3′,4′:6,7]indolizino[1,2-b]quinolin-4-yl glycinate] | 0.38 ± 0.1 µM | 10 ± 2 µM | 5.61 ± 1.4 µM | 5.16 ± 1.2 µM | 4.11 ± 3.09 µM | 5.19 ± 0.3 µM | > 40 µM | 0.12 ± 0.09 µM | – | – | – | – | – | – | – | – |
| CC[C@@]1(OC(=O)CCCN)C(=O)OCc2c1cc1n(c2=O)Cc2cc3ccccc3nc2-1 [CPT-B-L4, (S)-4-ethyl-3,14-dioxo-3,4,12,14-tetrahydro-1H-pyrano[3′,4′:6,7]indolizino[1,2-b]quinolin-4-yl 4-aminobutanoate] | 0.37 ± 0.02 µM | 4.37 ± 0.5 µM | 1.36 ± 0.3 µM | 3.2 ± 2 µM | 1.58 ± 2.42 µM | 1 ± 0.1 µM | > 40 µM | 0.25 ± 0.13 µM | – | – | – | – | – | – | – | – |
| CC[C@@]1(OC(=O)CCCCCN)C(=O)OCc2c1cc1n(c2=O)Cc2cc3ccccc3nc2-1 [CPT-B-L6, (S)-4-ethyl-3,14-dioxo-3,4,12,14-tetrahydro-1H-pyrano[3′,4′:6,7]indolizino[1,2-b]quinolin-4-yl 6-aminohexanoate] | 1.89 ± 0.2 µM | 15 ± 0.8 µM | 2.71 ± 0.38 µM | 5.44 ± 3 µM | 6.76 ± 1.47 µM | 15.9 ± 1.73 µM | > 40 µM | 3.55 ± 0.95 µM | – | – | – | – | – | – | – | – |
| CC[C@@]1(OC(=O)CCCCCCCCCCCN)C(=O)OCc2c1cc1n(c2=O)Cc2cc3ccccc3nc2-1 [CPT-B-L12, (S)-4-ethyl-3,14-dioxo-3,4,12,14-tetrahydro-1H-pyrano[3′,4′:6,7]indolizino[1,2-b]quinolin-4-yl 12-aminododecanoate] | 1.93 ± 1.03 µM | > 40 µM | 2.63 ± 0.84 µM | 5.2 ± 0.88 µM | 5.76 ± 0.86 µM | 6.45 ± 0.42 µM | > 40 µM | 7.32 ± 1.43 µM | – | – | – | – | – | – | – | – |
| CC[C@@]1(OC(=O)CNC(=O)[C@@H](N)CCC(=O)O)C(=O)OCc2c1cc1n(c2=O)Cc2cc3ccccc3nc2-1 [CPT-D-GL2, (S)-4-amino-5-((2-(((S)-4-ethyl-3,14-dioxo-3,4,12,14-tetrahydro-1H-pyrano[3′,4′:6,7]indolizino[1,2-b]quinolin-4-yl)oxy)-2-oxoethyl)amino)-5-oxopentanoic acid] | 3.68 ± 0.36 µM | > 40 µM | 0.16 ± 0.07 µM | 0.26 ± 0.14 µM | 0.3 ± 0.05 µM | 1.5 ± 0.2 µM | > 40 µM | 0.4 ± 0.05 µM | – | – | – | – | – | – | – | – |
| CC[C@@]1(OC(=O)CCCNC(=O)[C@@H](N)CCC(=O)O)C(=O)OCc2c1cc1n(c2=O)Cc2cc3ccccc3nc2-1 [CPT-D-GL4, (S)-4-amino-5-((4-(((S)-4-ethyl-3,14-dioxo-3,4,12,14-tetrahydro-1H-pyrano[3′,4′:6,7]indolizino[1,2-b]quinolin-4-yl)oxy)-4-oxobutyl)amino)-5-oxopentanoic acid] | 3.68 ± 0.5 µM | > 40 µM | 0.4 ± 0.15 µM | 0.23 ± 0.1 µM | 4.03 ± 0.3 µM | 14.9 ± 1 µM | > 40 µM | 4.89 ± 0.01 µM | – | – | – | – | – | – | – | – |
| CC[C@@]1(OC(=O)CCCCCNC(=O)[C@@H](N)CCC(=O)O)C(=O)OCc2c1cc1n(c2=O)Cc2cc3ccccc3nc2-1 [CPT-D-GL6, (S)-4-amino-5-((6-(((S)-4-ethyl-3,14-dioxo-3,4,12,14-tetrahydro-1H-pyrano[3′,4′:6,7]indolizino[1,2-b]quinolin-4-yl)oxy)-6-oxohexyl)amino)-5-oxopentanoic acid] | 8.17 ± 1 µM | > 40 µM | 1.5 ± 0.6 µM | 4 ± 0.42 µM | 17.2 ± 3 µM | 12.5 ± 0.8 µM | > 40 µM | 3.97 ± 0.16 µM | – | – | – | – | – | – | – | – |
| CC[C@@]1(OC(=O)CCCCCCCCCCCNC(=O)[C@@H](N)CCC(=O)O)C(=O)OCc2c1cc1n(c2=O)Cc2cc3ccccc3nc2-1 [CPT-D-GL12, (S)-4-amino-5-((12-(((S)-4-ethyl-3,14-dioxo-3,4,12,14-tetrahydro-1H-pyrano[3′,4′:6,7]indolizino[1,2-b]quinolin-4-yl)oxy)-12-oxododecyl)amino)-5-oxopentanoic acid] | 2.1 ± 0.68 µM | 25.5 ± 1 µM | 3.8 ± 0.8 µM | 5.1 ± 1.1 µM | > 40 µM | > 40 µM | > 40 µM | 7.38 ± 0.2 µM | – | – | – | – | – | – | – | – |
| CC[C@@]1(OC(=O)CNC(=O)[C@H](CCC(=O)N[C@@H](CCC(=O)N[C@@H](CCC(=O)N[C@@H](CC(=O)OC(C)(C)C)C(=O)N[C@@H](CCC(=O)OC(C)(C)C)C(=O)OC(C)(C)C)C(=O)OC(C)(C)C)C(=O)OC(C)(C)C)NC(=O)OC(C)(C)C)C(=O)OCc2c1cc1n(c2=O)Cc2cc3ccccc3nc2-1 [CPT-HT-J-L2, 14,22,24,9-tetra-tert-butyl 1-((S)-4-ethyl-3,14-dioxo-3,4,12,14-tetrahydro-1H-pyrano[3′,4′:6,7]indolizino[1,2-b]quinolin-4-yl) (4S,9S,14S,19S,22S)-19-(2-(tert-butoxy)-2-oxoethyl)-4-((tert-butoxycarbonyl)amino)-3,7,12,17,20-pentaoxo-2,8,13,18,21-pentaazatetracosane-1,9,14,22,24-pentacarboxylate] | – | – | – | – | – | – | – | – | > 40 µM | > 40 µM | > 40 µM | > 40 µM | > 40 µM | > 40 µM | > 40 µM | > 40 µM |
| CC[C@@]1(OC(=O)CCCNC(=O)[C@H](CCC(=O)N[C@@H](CCC(=O)N[C@@H](CCC(=O)N[C@@H](CC(=O)OC(C)(C)C)C(=O)N[C@@H](CCC(=O)OC(C)(C)C)C(=O)OC(C)(C)C)C(=O)OC(C)(C)C)C(=O)OC(C)(C)C)NC(=O)OC(C)(C)C)C(=O)OCc2c1cc1n(c2=O)Cc2cc3ccccc3nc2-1 [CPT-HT-J-L4, 1,11,16,3-tetra-tert-butyl 26-((S)-4-ethyl-3,14-dioxo-3,4,12,14-tetrahydro-1H-pyrano[3′,4′:6,7]indolizino[1,2-b]quinolin-4-yl) (3S,6S,11S,16S,21S)-6-(2-(tert-butoxy)-2-oxoethyl)-21-((tert-butoxycarbonyl)amino)-5,8,13,18,22-pentaoxo-4,7,12,17,23-pentaazahexacosane-1,3,11,16,26-pentacarboxylate] | – | – | – | – | – | – | – | – | > 40 µM | > 40 µM | > 40 µM | > 40 µM | > 40 µM | > 40 µM | > 40 µM | > 40 µM |
